Like-named read-outs stand apart in the source and are kept apart here.
Assay: In vivo pharmacokinetic studies of pyridyl substituted ketolides in rats (plasma and whole lung, LC-MS-MS)
Conditions: male Sprague-Dawley rats; for clearance / Vd / AUC / bioavailability / half-life / Kp: rat; for clearance / Vd: IV = 5 mg/kg, PO = 15 mg/kg; for clearance: read-out: CL (clearance of the compound from plasma); for Vd: read-out: Vss (volume of distribution); for bioavailability: read-out: F, PO (% bioavailability); for Kp: whole lung vs plasma, read-out: L/P ratio, IV (ratio of drug in lung/plasma after IV dosing)
Experimental: Animal Models. A total of 54 male Sprague-Dawley rats, weighing 200 grams in average, are evaluated for pharmacokinetic studies of representative substituted pyridyl ketolides. Rats are under overnight food restriction and receive water ad libitum. Rats are acclimated for approximately 5 days before antibiotic administration. Antibiotic Administration. Rats are given bolus administration through intravenous (IV) and oral (PO) routes. Representative substituted pyridyl ketolides and telithromycin, for comparison, are diluted in 0.85% saline to a concentration of 15.0 mg/ml, and the resulting pH is adjusted using 1N acetic acid until the compound is in solution. Approximately 200 μl of the compound solution is administered to the rats. The target dose for IV and PO administration is 5 mg/kg and 15 mg/kg, respectively. Sample Collection. Plasma and whole lung samples are collected from the rats. Plasma samples are obtained from blood samples by centrifugation at 3000 RPM for 10 min. Heparin is added in the plasma as an anticoagulant. Whole lung samples are homogenized in deionized water. Samples are stored at −80° C. A total of 9 time points are collected in triplicate at 0.083, 0.25, 0.5, 1, 2, 4, 6, 8, and 24 h. Ketolide concentrations in plasma and lung are determined by well-established non-GLP LC-MS-MS methods. PK parameters are estimated from the raw bioanalytical data using WinNolin software (Version 4.0, Pharsight Corporation, CA). All representative compounds are compared to telithromycin.

[1] = plasma, PO 15 mg/kg vs IV 5 mg/kg
[2] = IV bolus 5 mg/kg, plasma, read-out: t1/2, IV Plasma (converted)
[3] = PO 15 mg/kg, plasma, read-out: t1/2, PO Plasma (converted)

Row | clearance (plasma) [mL/min/kg] | Vd (plasma) [L/kg] | AUC (plasma, IV bolus 5 mg/kg) [ng·h/mL] | bioavailability [1] [%] | half-life [2] [h] | Kp (IV bolus 5 mg/kg) | t1/2, IV Plasma (IV bolus 5 mg/kg, plasma) [h] | F, PO (% bioavailability) (PO 15 mg/kg vs IV 5 mg/kg) [%] | t1/2, PO Plasma (PO 15 mg/kg, plasma) [h] | half-life [3] [h] | SMILES
1 | 25 | 4.3 | 3000 | 100 | 2.1 | 32 | – | – | – | – | CC[C@H]1OC(=O)[C@H](C)C(=O)[C@H](C)[C@@H](OC2O[C@H](C)C[C@H](N(C)C)[C@H]2O)[C@@](C)(OC)C[C@@H](C)C(=O)[C@H](C)[C@H]2N(CCCCn3cnc(-c4ccc(OC)nc4)c3)C(=O)O[C@]12C (some centres unmarked) [Cmpd D]
2 | 100 | 5 | – | – | – | 16 | 1.0 | 11 | 1.5 | – | CC[C@H]1OC(=O)[C@H](C)C(=O)[C@H](C)[C@@H](O[C@@H]2O[C@H](C)C[C@H](N(C)C)[C@H]2O)[C@](C)(OC)C[C@@H](C)C(=O)[C@H](C)[C@H]2N(CCCCn3cnc(-c4cccnc4)c3)C(=O)O[C@]12C [Telithromycin, telithromycin, reference compound]
3 | 48 | 6.5 | 1700 | 54 | 1.8 | 27 | – | – | – | 3.3 | CC[C@H]1OC(=O)[C@H](C)C(=O)[C@H](C)[C@@H](O[C@@H]2O[C@H](C)C[C@H](N(C)C)[C@H]2O)[C@@](C)(OC)C[C@@H](C)C(=O)[C@H](C)[C@H]2N(CCCCn3cnc(-c4ccc(C)nc4)c3)C(=O)O[C@]12C [Cmpd B]
4 | 38 | 5.6 | 2200 | 86 | 1.6 | 29 | – | – | – | 3.3 | CC[C@H]1OC(=O)[C@H](C)C(=O)[C@H](C)[C@@H](O[C@@H]2O[C@H](C)C[C@H](N(C)C)[C@H]2O)[C@@](C)(OC)C[C@@H](C)C(=O)[C@H](C)[C@H]2N(CCCCn3cnc(-c4ccc(Cl)nc4)c3)C(=O)O[C@]12C [Cmpd E]
